Literature values, collected in patent US20090298708A1, “2'-DEOXY-2'-FLUORO-BETA-D-ARABINONUCLEOSIDE 5'-TRIPHOSPHATES AND THEIR USE IN ENZYMATIC NUCLEIC ACID SYNTHESIS” (priority 2006, published 2009).

Target: T1, DNA pol-γ (Homo sapiens, UniProt P54098)
T1 sequence (P54098 1-1239): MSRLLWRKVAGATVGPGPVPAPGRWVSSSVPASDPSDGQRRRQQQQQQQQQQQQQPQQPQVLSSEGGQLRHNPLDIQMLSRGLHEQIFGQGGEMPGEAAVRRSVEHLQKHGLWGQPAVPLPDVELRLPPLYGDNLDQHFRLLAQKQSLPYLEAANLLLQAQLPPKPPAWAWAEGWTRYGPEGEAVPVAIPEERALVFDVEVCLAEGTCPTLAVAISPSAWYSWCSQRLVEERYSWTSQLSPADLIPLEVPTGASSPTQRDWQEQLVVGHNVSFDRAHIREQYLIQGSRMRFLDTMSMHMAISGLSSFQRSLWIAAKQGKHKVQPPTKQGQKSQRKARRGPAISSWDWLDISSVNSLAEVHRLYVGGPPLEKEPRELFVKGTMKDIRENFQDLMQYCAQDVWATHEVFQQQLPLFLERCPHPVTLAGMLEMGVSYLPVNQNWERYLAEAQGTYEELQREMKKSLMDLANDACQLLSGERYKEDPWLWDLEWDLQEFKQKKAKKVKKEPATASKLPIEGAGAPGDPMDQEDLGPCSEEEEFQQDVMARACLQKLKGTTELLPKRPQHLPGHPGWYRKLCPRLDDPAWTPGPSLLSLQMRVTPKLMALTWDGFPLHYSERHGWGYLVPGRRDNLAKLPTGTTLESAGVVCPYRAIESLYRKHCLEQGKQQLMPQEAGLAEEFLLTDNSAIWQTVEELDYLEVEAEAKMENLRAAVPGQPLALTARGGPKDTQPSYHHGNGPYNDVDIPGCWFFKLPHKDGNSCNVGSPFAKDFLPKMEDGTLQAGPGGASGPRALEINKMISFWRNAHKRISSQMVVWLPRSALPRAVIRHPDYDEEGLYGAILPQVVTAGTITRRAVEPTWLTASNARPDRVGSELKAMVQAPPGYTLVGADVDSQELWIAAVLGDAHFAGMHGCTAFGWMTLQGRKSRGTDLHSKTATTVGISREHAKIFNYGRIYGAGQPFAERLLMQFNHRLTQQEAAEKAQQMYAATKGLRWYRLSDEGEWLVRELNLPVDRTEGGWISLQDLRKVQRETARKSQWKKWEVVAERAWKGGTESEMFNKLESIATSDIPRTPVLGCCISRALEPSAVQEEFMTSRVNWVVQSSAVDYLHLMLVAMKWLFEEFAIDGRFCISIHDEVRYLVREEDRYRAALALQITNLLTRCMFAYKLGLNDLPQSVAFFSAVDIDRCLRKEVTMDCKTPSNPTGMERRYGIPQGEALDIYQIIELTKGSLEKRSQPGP
Settings: Lewis W. et al. (1994) Biochemistry, 33, 14620-14624; read-out: inhibition constant (Ki) with DNA pol-γ; cited from earlier work

For `O=c1[nH]c(=O)n(C2OC(COP(=O)(O)OP(=O)(O)OP(=O)(O)O)C(O)C2F)cc1I` (stereo not shown) [FIAU 5′-TP], the Ki is given as 40 nM.
